Test results: paper PMC4032265 (PLoS ONE, 2014)
Several values for one entry are separate records, joined by “and”; a condition that tells them apart may be missing. Equal values may be shown once. Read-outs that look alike come from different tables or passages of the source.

Assays:
5HT3 ion channels = target: T1, 5HT3 ion channels (Homo sapiens, UniProt P46098); assay: PDSP radioligand binding, 5HT3 ion channel; conditions: for inhibition at 10 µM: read-out: % inhibition at 10 µM
T1 sequence (P46098 24-478): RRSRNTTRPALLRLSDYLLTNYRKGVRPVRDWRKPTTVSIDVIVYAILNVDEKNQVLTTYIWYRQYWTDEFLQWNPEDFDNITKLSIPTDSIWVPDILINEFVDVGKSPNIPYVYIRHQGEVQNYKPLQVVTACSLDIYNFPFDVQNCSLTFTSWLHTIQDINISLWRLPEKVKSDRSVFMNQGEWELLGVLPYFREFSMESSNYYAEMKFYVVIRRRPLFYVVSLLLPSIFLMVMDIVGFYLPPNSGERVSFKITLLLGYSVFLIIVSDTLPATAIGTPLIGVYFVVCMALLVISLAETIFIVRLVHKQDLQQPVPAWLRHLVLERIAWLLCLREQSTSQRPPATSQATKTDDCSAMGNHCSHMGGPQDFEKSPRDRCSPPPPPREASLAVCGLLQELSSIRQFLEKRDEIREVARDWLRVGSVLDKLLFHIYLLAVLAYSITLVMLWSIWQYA

α2A adrenergic receptor = target: T2, α2A adrenergic receptor (Homo sapiens, UniProt P08913); assay: PDSP radioligand binding, α2A; conditions: for Ki: full concentration-response curves, n = 3-6 unless noted; for inhibition at 10 µM: read-out: % inhibition at 10 µM
T2 sequence (P08913 1-465): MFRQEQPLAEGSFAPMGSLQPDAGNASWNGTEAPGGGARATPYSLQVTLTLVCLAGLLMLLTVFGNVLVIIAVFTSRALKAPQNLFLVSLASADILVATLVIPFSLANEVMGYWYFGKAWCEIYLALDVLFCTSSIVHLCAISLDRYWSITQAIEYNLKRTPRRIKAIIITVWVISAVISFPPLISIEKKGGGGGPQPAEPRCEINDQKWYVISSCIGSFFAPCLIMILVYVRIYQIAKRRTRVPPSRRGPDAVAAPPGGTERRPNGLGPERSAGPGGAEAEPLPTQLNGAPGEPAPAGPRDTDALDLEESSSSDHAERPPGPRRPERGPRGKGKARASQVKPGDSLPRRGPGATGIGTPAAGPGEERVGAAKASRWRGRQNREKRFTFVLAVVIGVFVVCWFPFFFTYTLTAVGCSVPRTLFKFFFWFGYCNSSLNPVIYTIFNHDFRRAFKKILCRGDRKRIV

[1] = target: 5HT1B serotonergic receptor (Homo sapiens, UniProt P28222); assay: PDSP radioligand binding, 5HT1B; conditions: read-out: % inhibition at 10 µM
5HT1B serotonergic receptor, sequence (P28222 whole entry): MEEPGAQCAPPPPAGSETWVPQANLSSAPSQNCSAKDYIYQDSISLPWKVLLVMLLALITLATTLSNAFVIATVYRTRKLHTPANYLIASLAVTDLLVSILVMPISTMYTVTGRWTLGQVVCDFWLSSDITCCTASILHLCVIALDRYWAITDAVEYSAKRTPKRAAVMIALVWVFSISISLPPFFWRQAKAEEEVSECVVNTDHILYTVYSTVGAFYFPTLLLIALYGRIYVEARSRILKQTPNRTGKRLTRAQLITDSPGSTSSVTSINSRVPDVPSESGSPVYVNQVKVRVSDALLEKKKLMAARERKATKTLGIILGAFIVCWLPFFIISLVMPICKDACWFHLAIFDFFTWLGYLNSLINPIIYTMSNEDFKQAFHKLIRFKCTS

[2] = target: H3 histaminergic receptor (Homo sapiens, UniProt Q9Y5N1); assay: PDSP radioligand binding, H3; conditions: read-out: % inhibition at 10 µM
H3 histaminergic receptor, sequence (Q9Y5N1 whole entry): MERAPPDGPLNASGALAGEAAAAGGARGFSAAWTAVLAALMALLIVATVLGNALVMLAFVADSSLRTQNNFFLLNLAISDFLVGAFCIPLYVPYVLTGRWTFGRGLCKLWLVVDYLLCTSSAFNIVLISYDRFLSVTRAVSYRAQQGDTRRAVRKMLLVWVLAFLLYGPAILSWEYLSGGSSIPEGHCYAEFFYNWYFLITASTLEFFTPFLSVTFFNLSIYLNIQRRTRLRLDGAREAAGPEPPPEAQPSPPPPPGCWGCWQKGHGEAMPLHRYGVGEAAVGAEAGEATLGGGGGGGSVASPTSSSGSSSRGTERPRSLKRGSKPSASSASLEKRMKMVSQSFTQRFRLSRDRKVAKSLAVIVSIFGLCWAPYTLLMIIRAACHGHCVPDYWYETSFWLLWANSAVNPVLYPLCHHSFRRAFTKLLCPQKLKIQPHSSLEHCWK

α2C adrenergic receptor = target: T3, α2C adrenergic receptor (Homo sapiens, UniProt P18825); assay: PDSP radioligand binding, α2C; conditions: for Ki: full concentration-response curves, n = 3-6 unless noted; for inhibition at 10 µM: read-out: % inhibition at 10 µM
T3 sequence (P18825 1-462): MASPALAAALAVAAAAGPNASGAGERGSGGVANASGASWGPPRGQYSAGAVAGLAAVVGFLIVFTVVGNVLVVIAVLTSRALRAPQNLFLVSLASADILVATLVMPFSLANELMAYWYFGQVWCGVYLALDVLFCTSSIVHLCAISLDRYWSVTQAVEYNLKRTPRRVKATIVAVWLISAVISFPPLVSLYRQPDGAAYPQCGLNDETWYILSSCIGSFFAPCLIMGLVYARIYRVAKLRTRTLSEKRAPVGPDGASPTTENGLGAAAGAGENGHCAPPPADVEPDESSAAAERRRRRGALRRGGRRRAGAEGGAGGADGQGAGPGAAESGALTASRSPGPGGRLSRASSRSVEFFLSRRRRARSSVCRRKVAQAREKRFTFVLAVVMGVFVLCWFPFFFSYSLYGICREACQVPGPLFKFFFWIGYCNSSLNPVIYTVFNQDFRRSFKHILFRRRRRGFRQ

[3] = target: 5HT1E serotonergic receptor (Homo sapiens, UniProt P28566); assay: PDSP radioligand binding, 5HT1E; conditions: read-out: % inhibition at 10 µM
5HT1E serotonergic receptor, sequence (P28566 whole entry): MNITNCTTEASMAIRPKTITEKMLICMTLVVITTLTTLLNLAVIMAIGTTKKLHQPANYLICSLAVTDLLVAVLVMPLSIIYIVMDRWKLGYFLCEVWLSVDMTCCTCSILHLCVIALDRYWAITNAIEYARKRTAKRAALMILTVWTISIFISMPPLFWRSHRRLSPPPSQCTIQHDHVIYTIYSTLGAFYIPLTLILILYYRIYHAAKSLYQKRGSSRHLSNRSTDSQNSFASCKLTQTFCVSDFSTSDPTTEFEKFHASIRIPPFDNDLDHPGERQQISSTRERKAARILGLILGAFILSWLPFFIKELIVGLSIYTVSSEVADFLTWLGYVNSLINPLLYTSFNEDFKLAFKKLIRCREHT

[4] = target: 5HT7 serotonergic receptor (Homo sapiens, UniProt P34969); assay: PDSP radioligand binding, 5HT7; conditions: for inhibition at 10 µM: read-out: % inhibition at 10 µM; for Ki: full curve, n = 1
5HT7 serotonergic receptor, sequence (P34969 whole entry): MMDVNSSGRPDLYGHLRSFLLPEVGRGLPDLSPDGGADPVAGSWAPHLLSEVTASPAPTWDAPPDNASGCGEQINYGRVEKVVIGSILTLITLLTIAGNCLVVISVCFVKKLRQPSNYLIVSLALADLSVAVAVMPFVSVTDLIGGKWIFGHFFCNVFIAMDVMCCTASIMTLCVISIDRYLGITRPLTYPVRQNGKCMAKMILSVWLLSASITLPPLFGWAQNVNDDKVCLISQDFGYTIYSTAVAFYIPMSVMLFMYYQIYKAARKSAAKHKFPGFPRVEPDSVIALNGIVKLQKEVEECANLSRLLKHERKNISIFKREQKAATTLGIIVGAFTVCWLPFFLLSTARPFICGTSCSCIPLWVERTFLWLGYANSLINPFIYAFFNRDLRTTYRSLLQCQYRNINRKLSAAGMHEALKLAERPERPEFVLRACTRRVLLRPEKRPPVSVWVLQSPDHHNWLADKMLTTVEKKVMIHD

[5] = target: H4 histaminergic receptor (Homo sapiens, UniProt Q9H3N8); assay: PDSP radioligand binding, H4; conditions: read-out: % inhibition at 10 µM
H4 histaminergic receptor, sequence (Q9H3N8 whole entry): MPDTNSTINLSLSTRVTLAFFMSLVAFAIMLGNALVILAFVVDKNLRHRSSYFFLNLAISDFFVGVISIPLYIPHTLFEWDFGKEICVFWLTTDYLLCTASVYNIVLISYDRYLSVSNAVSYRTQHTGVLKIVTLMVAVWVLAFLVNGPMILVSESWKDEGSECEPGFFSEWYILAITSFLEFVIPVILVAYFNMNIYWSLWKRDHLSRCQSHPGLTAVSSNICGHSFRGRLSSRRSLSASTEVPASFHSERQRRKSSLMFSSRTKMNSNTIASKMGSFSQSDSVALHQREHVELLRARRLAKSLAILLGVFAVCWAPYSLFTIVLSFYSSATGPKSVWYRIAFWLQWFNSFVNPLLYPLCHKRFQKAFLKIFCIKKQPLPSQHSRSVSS

[6] = target: 5HT1D serotonergic receptor (Homo sapiens, UniProt P28221); assay: PDSP radioligand binding, 5HT1D; conditions: read-out: % inhibition at 10 µM
5HT1D serotonergic receptor, sequence (P28221 whole entry): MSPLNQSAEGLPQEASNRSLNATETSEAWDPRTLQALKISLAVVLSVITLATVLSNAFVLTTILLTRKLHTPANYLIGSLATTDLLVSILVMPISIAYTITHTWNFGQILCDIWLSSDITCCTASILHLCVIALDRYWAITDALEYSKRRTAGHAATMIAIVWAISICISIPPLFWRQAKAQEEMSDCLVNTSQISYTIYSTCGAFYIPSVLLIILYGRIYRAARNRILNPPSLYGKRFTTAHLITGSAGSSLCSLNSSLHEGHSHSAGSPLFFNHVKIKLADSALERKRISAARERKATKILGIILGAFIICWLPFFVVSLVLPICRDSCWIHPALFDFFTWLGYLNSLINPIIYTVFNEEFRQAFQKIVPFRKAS

α1A adrenergic receptor = target: T4, α1A adrenergic receptor (Homo sapiens, UniProt P35348); assay: PDSP radioligand binding, α1A; conditions: read-out: % inhibition at 10 µM
T4 sequence (P35348 1-466): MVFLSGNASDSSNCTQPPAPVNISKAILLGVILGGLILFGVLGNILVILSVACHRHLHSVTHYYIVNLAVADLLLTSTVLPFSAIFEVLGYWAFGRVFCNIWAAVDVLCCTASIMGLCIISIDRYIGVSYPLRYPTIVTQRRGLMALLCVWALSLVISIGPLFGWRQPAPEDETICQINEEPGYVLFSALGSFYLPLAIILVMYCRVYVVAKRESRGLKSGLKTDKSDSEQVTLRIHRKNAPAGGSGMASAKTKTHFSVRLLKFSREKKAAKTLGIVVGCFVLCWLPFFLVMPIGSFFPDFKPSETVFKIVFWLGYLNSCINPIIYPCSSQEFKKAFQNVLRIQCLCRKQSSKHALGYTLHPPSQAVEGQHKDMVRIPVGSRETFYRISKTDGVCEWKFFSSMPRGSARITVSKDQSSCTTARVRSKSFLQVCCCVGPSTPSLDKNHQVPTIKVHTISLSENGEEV

[7] = target: T5, M5 muscarinic acetylcholine receptor (Homo sapiens, UniProt P08912); assay: PDSP radioligand binding, M5; conditions: read-out: % inhibition at 10 µM
T5 sequence (P08912 1-532): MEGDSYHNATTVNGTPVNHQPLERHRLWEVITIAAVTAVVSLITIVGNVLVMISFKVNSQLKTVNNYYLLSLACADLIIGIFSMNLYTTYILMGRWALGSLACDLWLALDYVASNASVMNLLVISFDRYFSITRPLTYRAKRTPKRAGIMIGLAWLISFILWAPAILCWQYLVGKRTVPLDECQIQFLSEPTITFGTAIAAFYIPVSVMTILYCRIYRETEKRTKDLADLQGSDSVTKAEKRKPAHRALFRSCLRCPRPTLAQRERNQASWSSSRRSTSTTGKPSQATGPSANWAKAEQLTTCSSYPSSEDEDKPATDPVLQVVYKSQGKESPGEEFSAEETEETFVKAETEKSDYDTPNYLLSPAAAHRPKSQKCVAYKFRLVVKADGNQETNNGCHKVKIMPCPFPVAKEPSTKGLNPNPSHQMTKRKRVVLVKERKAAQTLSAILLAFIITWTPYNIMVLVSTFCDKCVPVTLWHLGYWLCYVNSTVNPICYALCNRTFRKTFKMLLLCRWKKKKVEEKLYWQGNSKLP

Row | Structure (SMILES) | Ki (α2A adrenergic receptor) | Ki (α2C adrenergic receptor) | inhibition at 10 µM (5HT3 ion channels; single concentration 10 µM) | inhibition at 10 µM (α2A adrenergic receptor; single concentration 10 µM) | inhibition at 10 µM ([1]; single concentration 10 µM) | inhibition at 10 µM ([2]; single concentration 10 µM) | inhibition at 10 µM (α2C adrenergic receptor; single concentration 10 µM) | inhibition at 10 µM ([3]; single concentration 10 µM) | inhibition at 10 µM ([4]; single concentration 10 µM) | inhibition at 10 µM ([5]; single concentration 10 µM) | inhibition at 10 µM ([6]; single concentration 10 µM) | inhibition at 10 µM (α1A adrenergic receptor; single concentration 10 µM) | inhibition at 10 µM ([7]; single concentration 10 µM) | other results
1 | CNC(=O)[C@@]12C[C@@H]1[C@@H](n1cnc3c(NCc4cccc(Cl)c4)nc(C#Cc4ccc(F)c(F)c4)nc31)[C@H](O)[C@@H]2O [Compound 1] | 4.77 ± 1.43 µM | 2.04 ± 0.95 µM | – | – | – | – | – | – | – | – | – | – | – | inhibition at 10 µM (5HT3 ion channels): 3%; inhibition at 10 µM (α2A adrenergic receptor): 19%; inhibition at 10 µM [1]: 0%; inhibition at 10 µM [2]: 8%; inhibition at 10 µM (α2C adrenergic receptor): 63%; inhibition at 10 µM [3]: 12%; inhibition at 10 µM [4]: 5%; inhibition at 10 µM [5]: 17%; inhibition at 10 µM [6]: 0%; inhibition at 10 µM (α1A adrenergic receptor): 10%; inhibition at 10 µM [7]: 2%
2 | CNC(=O)[C@@]12C[C@@H]1[C@@H](n1cnc3c(NCc4cccc(Cl)c4)nc(C#Cc4ccc(F)cc4)nc31)[C@H](O)[C@@H]2O [Compound 2] | – | 3.64 ± 1.37 µM | 26% | 6% | 0% | 0% | 48% | 0% | 6% | 28% | 21% | 7% | 9% | –
3 | CNC(=O)[C@@]12C[C@@H]1[C@@H](n1cnc3c(NCc4cccc(Cl)c4)nc(C#Cc4ccccc4Cl)nc31)[C@H](O)[C@@H]2O [Compound 3] | – | 1.81 ± 0.25 µM | 50% | 22% | 0% | 0% | 57% | 0% | 8% | 9% | 10% | 16% | 9% | –
4 | CNC(=O)[C@@]12C[C@@H]1[C@@H](n1cnc3c(NCc4cccc(Cl)c4)nc(Cl)nc31)[C@H](O)[C@@H]2O [Compound 4] | – | – | 5% | 26% | 23% | 0% | 11% | 0% | 40 ± 7% | – | 31% | 3% | 1% | Ki [4]: 7.73 µM
5 | CNC(=O)[C@@]12C[C@@H]1[C@@H](n1cnc3c(NC)nc(C#Cc4ccc(F)c(F)c4)nc31)[C@H](O)[C@@H]2O [Compound 5] | – | – | 2% | 0% | 15% | 0% | 13% | 9% | 0% | – | 13% | 0% | 4% | –
6 | O[C@@H]1[C@H](O)[C@@H]2C[C@@H]2[C@H]1n1cnc2c(NCc3cccc(Cl)c3)nc(C#Cc3ccc(F)c(F)c3)nc21 [Compound 6] | – | 5.4 ± 1.22 µM | 0% | 14% | 13% | 0% | 11% | 0% | 0% | – | 12% | 13% | 3% | –
7 | O[C@@H]1[C@H](O)[C@@H]2C[C@@H]2[C@H]1n1cnc2c(NCc3cccc(Cl)c3)ncnc21 [Compound 7] | – | 5.36 ± 1.25 µM | 83% | 26% | 2% | 0% | 51% | 0% | 35 ± 2% | 0% | 4% | 15% | 15% | Ki (5HT3 ion channels; full concentration-response curves, n = 3-6 unless noted): 3.26 ± 0.8 µM; Ki [4]: 3.92 µM
8 | Fc1ccc(C#Cc2nc(NCc3cccc(Cl)c3)c3nc[nH]c3n2)cc1F [Compound 8] | 2.19 ± 0.27 µM | 1.02 ± 0.69 µM | 0% | 34% | 32% | 0% | 83% | 0% | 0% | 5% | 26% | 0% | 2% | –
9 | Clc1cccc(CNc2nc(Cl)nc3[nH]cnc23)c1 [Compound 9] | 3 ± 0.51 µM | 0.31 µM and 0.314 µM | 28% | 58% | 6% | 3% | 87% | 0% | 12% | 5% | 14% | 26% | 0% | –
10 | O[C@@H]1[C@H](O)[C@@H]2C[C@@H]2[C@H]1n1cnc2c(NC(C3CC3)C3CC3)nc(Cl)nc21 [Compound 10] | – | – | 3% | 17% | 0% | 8% | 0% | 3% | 0% | 6% | 18% | 1% | 0% | –
